Experimental data published in PubChem BioAssay AID248 (DTP/NCI, 2004).
Where “and” joins values, the source holds several entries; their conditions need not be identical. Equal entries are not always repeated. Inconclusive results and toxic doses are left out. Rule as the data show it: active = T/C of 150% or more; inactive = T/C below 125%.

Test system: L1210 leukemia ip in BDF1 mice, survival T/C
Assay: NCI In Vivo Anticancer Drug Screen. Data for tumor model L1210 Leukemia (intraperitoneal) in B6D2F1 (BDF1) mice
Settings: endpoint: mean survival time, higher = longer survival
Outline: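 Survival endpoint. Drug-treated group vs vehicle group, expressed as T divided by C. Tumor passaged by transplantation.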

[1] = dose: 100.0 mg/kg/injection, schedule: Q01DX001 (ip), vehicle: saline
[2] = dose: 100.0 mg/kg/injection, schedule: Q04DX003 (ip), vehicle: saline with Tween-80
[3] = dose: 200.0 mg/kg/injection, schedule: Q04DX003 (ip), vehicle: saline with Tween-80
[4] = dose: 400.0 mg/kg/injection, schedule: Q04DX003 (ip), vehicle: saline with Tween-80
[5] = dose: 200.0 mg/kg/injection, schedule: Q01DX001 (ip), vehicle: saline
[6] = dose: 400.0 mg/kg/injection, schedule: Q01DX001 (ip), vehicle: saline
[7] = dose: 100.0 mg/kg/injection, schedule: Q01DX001 (ip), vehicle: Klucel (hydroxypropylcellulose) (HPC)
[8] = dose: 200.0 mg/kg/injection, schedule: Q01DX001 (ip), vehicle: Klucel (hydroxypropylcellulose) (HPC)
[9] = dose: 400.0 mg/kg/injection, schedule: Q01DX001 (ip), vehicle: Klucel (hydroxypropylcellulose) (HPC)
[10] = dose: 100.0 mg/kg/injection, schedule: Q04DX002 (ip), vehicle: Klucel (hydroxypropylcellulose) (HPC)
[11] = dose: 200.0 mg/kg/injection, schedule: Q04DX002 (ip), vehicle: Klucel (hydroxypropylcellulose) (HPC)
[12] = dose: 400.0 mg/kg/injection, schedule: Q04DX002 (ip), vehicle: Klucel (hydroxypropylcellulose) (HPC)
[13] = dose: 100.0 mg/kg/injection, schedule: Q01DX009 (ip), vehicle: Klucel (hydroxypropylcellulose) (HPC)
[14] = dose: 200.0 mg/kg/injection, schedule: Q01DX009 (ip), vehicle: Klucel (hydroxypropylcellulose) (HPC)
[15] = dose: 400.0 mg/kg/injection, schedule: Q01DX009 (ip), vehicle: Klucel (hydroxypropylcellulose) (HPC)
[16] = dose: 50.0 mg/kg/injection, schedule: Q04DX002 (ip), vehicle: Klucel (hydroxypropylcellulose) (HPC)

Measured: T/C

NP(O)(O)=S
inactive: dose: 9.38 mg/kg/injection, schedule: Q01DX001 (ip), vehicle: saline 104 % of control | dose: 18.75 mg/kg/injection, schedule: Q01DX001 (ip), vehicle: saline 98 % of control

CC[n+]1ccc(Nc2ccc(NC(=O)c3ccc(C(=O)Nc4ccc(Nc5cc[n+](CC)c(N)n5)cc4)cc3)cc2)nc1N
inactive: dose: 133.0 mg/kg/injection, schedule: Q01DX009 (ip), vehicle: saline 88 % of control
active: [1] 190 % of control | dose: 150.0 mg/kg/injection, schedule: Q01DX001 (ip), vehicle: saline 228 % of control | dose: 225.0 mg/kg/injection, schedule: Q01DX001 (ip), vehicle: saline 203 % of control

CC(=O)Cc1ccc(C(=O)C(C)Cc2ccc(C(C)=O)cc2)cc1 (stereo not given)
inactive: [2] 90 % of control | [3] 110 % of control | [4] 92 % of control

O=C(Nc1ccccc1)c1cc(N2CCOCC2)ccn1
inactive: [1] 97 % of control | [5] 95 % of control | [6] 91 % of control

OCC(O)COc1ccnc2ccccc12 (stereo not given)
inactive: dose: 100.0 mg/kg/injection, schedule: Q01DX009 (ip), vehicle: acetone 105 % of control | dose: 200.0 mg/kg/injection, schedule: Q01DX009 (ip), vehicle: acetone 97 % of control | dose: 400.0 mg/kg/injection, schedule: Q01DX009 (ip), vehicle: acetone 97 % of control

CC(C)(C)c1ccc(OCCCOc2ccc(C(=O)O)cc2)cc1
inactive: [7] 97 % of control | dose: 100.0 mg/kg/injection, schedule: Q01DX009 (ip), vehicle: saline sonified 103 % of control | [8] 103 % of control | dose: 200.0 mg/kg/injection, schedule: Q01DX009 (ip), vehicle: saline sonified 118 % of control | [9] 100 % of control | dose: 400.0 mg/kg/injection, schedule: Q01DX009 (ip), vehicle: saline sonified 94 % of control

CCCCCC(O)C(C)C (stereo not given)
inactive: dose: 37.5 mg/kg/injection, schedule: Q04DX003 (ip), vehicle: saline 96 % of control | dose: 75.0 mg/kg/injection, schedule: Q04DX003 (ip), vehicle: saline 108 % of control | dose: 150.0 mg/kg/injection, schedule: Q04DX003 (ip), vehicle: saline 94 % of control

NC(=O)c1[nH]cnc1/N=N/N1CCCC1
inactive: dose: 125.0 mg/kg/injection, schedule: Q01DX Z (ip), vehicle: carboxymethylcellulose (CMC) 103 % of control | dose: 375.0 mg/kg/injection, schedule: Q01DX Z (ip), vehicle: carboxymethylcellulose (CMC) 105 % of control

CCOC(=O)C1C(=O)C(CN(CCCl)CCCl)C(=O)C(C(=O)OCC)C1c1cc(OC)c(OC)c(OC)c1 (stereo not given)
inactive: [10] 114 % of control | [11] 102 % of control | [12] 111 % of control

C=C(C)COc1c(C)cc(C)cc1[N+](=O)[O-]
inactive: [2] 96 % of control | [3] 100 % of control | [4] 97 % of control

O=c1[nH]c(=O)ss1
inactive: dose: 100.0 mg/kg/injection, schedule: Q04DX003 (ip), vehicle: saline 100 % of control | dose: 200.0 mg/kg/injection, schedule: Q04DX003 (ip), vehicle: saline 94 % of control

CC(C)N1C(=O)N(C(C)C)C2(CCN(CC3COc4ccccc4O3)CC2)C1=O (stereo not given)
inactive: [7] 100 % of control | [8] 88 % of control | [9] 94 % of control

CC1(C)OC2C(C(N)=O)OC(n3cnc4c(N)ncnc43)C2O1 (stereo not given)
inactive: dose: 100.0 mg/kg/injection, schedule: Q01DX005 (ip), vehicle: saline 104 % of control | dose: 200.0 mg/kg/injection, schedule: Q01DX005 (ip), vehicle: saline 102 % of control

COC(=O)c1ccccc1C(=O)Nc1cc(C(F)(F)F)ccc1Cl
inactive: [13] 100 % of control | [14] 103 % of control | [15] 100 % of control

O=C(O)/C(=C\c1ccccc1Cl)c1ccccc1
inactive: [10] 94 % of control | [11] 90 % of control

OC1(c2ccc(F)cc2)c2ccccc2-c2ccccc21
inactive: dose: 75.0 mg/kg/injection, schedule: Q01DX001 (ip), vehicle: other 96 % of control | dose: 150.0 mg/kg/injection, schedule: Q01DX001 (ip), vehicle: other 96 % of control

O=C1c2cccc3cc([N+](=O)[O-])cc(c23)C(=O)N1CCc1ccccn1
inactive: [10] 94 % of control | [11] 102 % of control | [12] 108 % of control

NNC(=O)C1CC1
inactive: dose: 12.5 mg/kg/injection, schedule: Q04DX003 (ip), vehicle: saline 101 % of control | dose: 25.0 mg/kg/injection, schedule: Q04DX003 (ip), vehicle: saline 97 % of control | dose: 50.0 mg/kg/injection, schedule: Q04DX003 (ip), vehicle: saline 96 % of control and 103 % of control

CCCNCCC[P+](c1ccccc1)(c1ccccc1)c1ccccc1
inactive: dose: 25.0 mg/kg/injection, schedule: Q04DX002 (ip), vehicle: saline 102 % of control | dose: 50.0 mg/kg/injection, schedule: Q04DX002 (ip), vehicle: saline 98 % of control | dose: 100.0 mg/kg/injection, schedule: Q04DX002 (ip), vehicle: saline 98 % of control and 91 % of control

NC(=O)N1C(=O)C=CC1=O
inactive: [16] 96 % of control | [13] 105 % of control | [10] 100 % of control | [14] 91 % of control

O=C(Nc1cccc(C(F)(F)F)c1)Nc1cc([N+](=O)[O-])ccc1Cl
inactive: dose: 50.0 mg/kg/injection, schedule: Q01DX009 (ip), vehicle: Klucel (hydroxypropylcellulose) (HPC) 96 % of control | [13] 97 % of control and 108 % of control | [14] 89 % of control | [15] 88 % of control

CC(NC(=O)OCc1ccccc1)C(=O)NC(Cc1ccc(O)cc1)C(=O)OCc1ccccc1 (stereo not given)
inactive: [2] 97 % of control | [3] 90 % of control | [4] 93 % of control

COC(=O)c1ccc(C(=O)OC)nc1
inactive: [16] 106 % of control | [10] 95 % of control | [11] 103 % of control

CN1CN(c2ccccc2)C2(CCN(CCc3cc4ccccc4o3)CC2)C1=O
inactive: [7] 96 % of control | [8] 95 % of control | [9] 101 % of control

CN(C)c1ccc(/C=C/C(=O)Cc2ccccc2)cc1
inactive: dose: 1.56 mg/kg/injection, schedule: Q04DX002 (ip), vehicle: saline with Tween-80 109 % of control | dose: 3.13 mg/kg/injection, schedule: Q04DX002 (ip), vehicle: saline with Tween-80 103 % of control | dose: 6.25 mg/kg/injection, schedule: Q04DX002 (ip), vehicle: saline with Tween-80 98 % of control | dose: 12.5 mg/kg/injection, schedule: Q04DX002 (ip), vehicle: saline with Tween-80 95 % of control and 98 % of control | dose: 50.0 mg/kg/injection, schedule: Q04DX002 (ip), vehicle: saline with Tween-80 104 % of control | dose: 100.0 mg/kg/injection, schedule: Q04DX002 (ip), vehicle: saline with Tween-80 88 % of control

Nc1ccc(S(=O)(=O)F)c(Cl)c1
inactive: [1] 102 % of control | [5] 98 % of control | [6] 98 % of control

Cc1cc2nc3c(=O)[nH]c(=O)nc-3n(CCN(CCCl)CCCl)c2cc1C
active: dose: 400.0 mg/kg/injection, schedule: Q01DX001 (ip), vehicle: carboxymethylcellulose (CMC) 152 % of control
inactive: dose: 42.0 mg/kg/injection, schedule: Q01DX015 (ip), vehicle: carboxymethylcellulose (CMC) 115 % of control | dose: 72.0 mg/kg/injection, schedule: Q01DX015 (ip), vehicle: carboxymethylcellulose (CMC) 96 % of control | dose: 120.0 mg/kg/injection, schedule: Q01DX015 (ip), vehicle: carboxymethylcellulose (CMC) 86 % of control | dose: 600.0 mg/kg/injection, schedule: Q01DX001 (ip), vehicle: carboxymethylcellulose (CMC) 103 % of control

c1ccc(Cc2[nH]nc(-c3ccccc3)c2N=Nc2ccccc2)cc1
inactive: [7] 94 % of control | dose: 100.0 mg/kg/injection, schedule: Q04DX003 (ip), vehicle: Klucel (hydroxypropylcellulose) (HPC) 103 % of control | [8] 94 % of control | dose: 200.0 mg/kg/injection, schedule: Q04DX003 (ip), vehicle: Klucel (hydroxypropylcellulose) (HPC) 103 % of control | [9] 91 % of control | dose: 400.0 mg/kg/injection, schedule: Q04DX003 (ip), vehicle: Klucel (hydroxypropylcellulose) (HPC) 100 % of control

CC1=CN(C)C(=O)CC1
inactive: dose: 100.0 mg/kg/injection, schedule: Q01DX001 (ip), vehicle: acetone 96 % of control | dose: 200.0 mg/kg/injection, schedule: Q01DX001 (ip), vehicle: acetone 96 % of control | dose: 400.0 mg/kg/injection, schedule: Q01DX001 (ip), vehicle: acetone 104 % of control
